Reference: US10781203B2, “Nontoxic compounds for the treatment and prevention of herpesvirus infections” (The Penn State Research Foundation, priority 2016, dated 2020)
pEC50, pIC50: −log10 of the molar value.

Experiments:
cells = assay: Cell viability after extended treatment (trypan blue, bright field); format: cell-based; details: after 96 hours of treatment
Text: FIG. 3A is a growth curve analysis of HCMV (MOI=3) in untreated (WT), vehicle treated (DMSO) or Retro94-treated cells. Samples were harvested at 24, 48, 72, 96, 120 and 144 hpi. […] Nuclei labeled with DAPI (blue). Scale bars: 10 μm. FIG. 3C is a growth curve analysis of HCMV (MOI=0.05) in DMSO control (DMSO) or Retro94-treated cells. Samples were harvested at 3, 6, 9, 12 and 15 dpi. Asterisks indicate change of media with fresh Retro94. […] Bright field images of cell monolayers at 4 days post treatment are shown below graph. Brefeldin A was included as a positive control for cell death. Values in FIGS. 3A and 3C are from one representative experiment.
Normal human dermal fibroblasts, HDFs (Cell Applications Inc. 106-05N), and normal human lung fibroblasts, MRC-5 cells (ATCC CCL-171) were maintained in Dulbecco's modified Eagle's medium (DMEM) (Lonza). Human retinal pigmented epithelial cells (ARPE-19), maintained in DMEM/Ham's F12 (1:1 mix) (Lonza), human embryonic lung fibroblasts (HEL) and mouse embryonic fibroblasts (NIH 3T3), maintained in DMEM (Lonza) were obtained (Spector D J, Yetming K. Virology. 2010; 407(2):171-7; Spector D J. Virology. 2015, 476:345-54). All media was supplemented with 10% fetal bovine serum, 100 U/ml penicillin and 100 µg/ml streptomycin, and 2 mM GlutaMAX (Gibco). Cells were maintained at 37° C. with 5% CO2. […]

HCMV = HCMV single-step growth curve / virus titer analysis (MOI=3); format: cell-based, Human cytomegalovirus (HCMV); details: Human betaherpesvirus 5; for pEC50: MOI=3, harvested at 96 hpi (FIG. 9)
Method: Infections were done at an MOI of 0.05 for multi-step growth curves and MOI 3 for single-step growth curves. Infections were done on NHDFs unless otherwise noted. Virus was incubated with cells for 2 hours before addition of fresh media. For growth curve analyses, virus was harvested at the indicated time-points for each experiment by scraping the cells into the medium, sonicating 10 times with 1 second pulses, vortexing for 15 seconds, and centrifuging at 13,000 rpm for 10 min. Supernatants were collected, aliquoted and flash-frozen in liquid nitrogen before storage at −80° C.
(§1) For MCMV growth curve analysis, samples were titrated on NIH 3T3 cells and titers were calculated using the 50% tissue culture infective dose method. Both HCMV virus stocks and samples for growth curves were titrated by serial dilutions on MRC5 cells and quantified by the immunological detection of immediate-early proteins as previously described (Britt W J. Human cytomegalovirus: propagation, quantification, and storage. Curr Protoc Microbiol. 2010; Chapter 14: Unit 14E.3). The numbers of stained nuclei were acquired on a Nikon Eclipse Ti Inverted microscope and fluorescent nuclei were quantified using the NIS Elements Software. Images of viral foci from infection of ARPE19 cells were also acquired on Eclipse Ti Inverted microscope. The number and size of foci were quantified using NIS Elements software.
^1H NMR spectra were recorded on a 500 MHz Bruker spectrometer (Billerica, Mass.) using tetramethylsilane (TMS) as the internal reference. The following abbreviations were used to designate chemical shift multiplicities: s=singlet, d=doublet, dd=double doublet, t=triplet, dt=doublet of triplet, m=multiplet. Mass Spec analysis was performed on 4000 Q trap hybrid triple quadrupole/linear ion trap instrument (Applied Biosystems/MDS Sciex) at the proteomic facility at Penn State Hershey Cancer Institute, Hershey, Pa. Thin-layer chromatography (TLC) was on aluminum-supported, precoated silica gel plates (EM Industries, Gibbstown, N.J.). 5-(2-methyl-3-thiazol-4-yl)-2-thiophencarboxaldehyde was purchased from MAYBRIDGE-Thermo Fisher (Cornwall, UK). All other starting materials were obtained from Aldrich Chemical Co. (Milwaukee, Wis.) and used without further purification. Retro94 was added to cells at 2 hpi at a concentration of 10 μM, unless otherwise indicated.

MCMV = assay: Viral titers of MCMV-infected fibroblasts; format: cell-based, mouse; details: 6 dpi (FIG. 12A)
Method: FIG. 7A is a graph showing viral titers at 15 dpi of fibroblasts infected with various strains of HCMV (MOI=0.05) and treated with DMSO or Retro94 at 2 hpi. Media was changed and fresh Retro94 was added at 6 dpi. Bright field images representing CPE of above infections shown at right. FIG. 7B show HCMV-infected ARPE-19 cells (TB40, MOI=3) at 21 dpi treated with DMSO or Retro94 ([…]). Infected cells detected by monitoring mCherry (red) expressed by TB40 virus. Scale bars: 1 mm. The table below images show number of foci detected, average area and standard error of the mean. P<0.00001. […]
as §1, with “Images of viral foci from infection of ARPE19 cells were also acquired on Eclipse Ti Inverted microscope.” left out

EBV = assay: EC50 against other herpesviruses: EBV; format: cell-based; details: below the lowest concentration tested (FIG. 10B)
Text: (§2) FIGS. 10A-10B show data to provide support for Retro94 and derivatives being effective against other herpesviruses. […] Samples were harvested at 24 hpi. Representative data shown are from independent replicates. FIG. 10B provides a table showing low nanomolar EC50 values of Retro94F against other herpesviruses.

KSHV = assay: EC50 against other herpesviruses: KSHV; format: cell-based; details: below the lowest concentration tested (FIG. 10B)
Text: as §2

[1] = tested on: range of viruses from diverse families; assay: EC50 against non-herpesviruses; format: cell-based; details: FIG. 11A
Text: (§3) FIG. 11A provides a table showing EC50 values of Retro94F against a range of viruses from diverse families. […] Samples were harvested at 24, 48 and 72 hpi. Data shown is from one independent replicates.

Zika virus = assay: Growth curve analysis of Zika virus; format: cell-based; details: MOI=5; 24, 48 and 72 hpi
Text: as §3

[2] = Tolerability in mice (adverse effects, creatinine, BUN); format: in vivo, C57BL/6 mice
Method: FIGS. 13A-13B provides data to support Retro94F showing no overt toxicity in mice. FIGS. 13A and 13B, Mice were treated with […] Retro-2.1 or vehicle control one hour prior to infection with 2×10^4 PFU MuPyV, then daily until day 4 p.i.
While we obtained good results in tissue culture, developing animal models to test the inhibitors was undertaken to allow for studies to test both the properties of the compounds in a host as well as their efficacy against viruses. […] Thus, at least two mouse infection models in which to show efficacy of the compounds against infection in a host organism is provided. Administration of Retro94F to mice to monitor for potential adverse effects of the compound was undertaken. These initial studies have shown that Retro94F is well tolerated by the mice. For these studies, C57BL/6 mice were injected intraperitoneally once daily with 250 μg of Retro94F or vehicle control in 250 μl of 0.9% saline. […] Thus, the inhibitors appear to be well tolerated by mice.

mouse polyomavirus = assay: Immune response of mice challenged with mouse polyomavirus; format: in vivo, B6 mice
Text: (A-E) B6 mice were infected via hind footpads with 2×10^5 PFU of MuPyV. FIGS. 14A and 14B show the results of the percent of immune cell populations in the spleen (FIG. 14A) and kidney (FIG. 14B) analyzed at day 8 post infection between vehicle- or Retro94F-treated mice. […] FIGS. 14D-14E show the phenotype of MuPyV-specific CD8 T cells, analyzed at day 8 or day 30 post infection. KLRG1hi CD127lo (FIG. 14D) cells are short-lived effector cells, while KLRG1lo CD127hi (FIG. 14E) cells are memory-precursor effector cells.
Thus, the inhibitors appear to be well tolerated by mice.

SMILES | cells remaining in the monolayer (cells) | pEC50 (HCMV) | pIC50 (HCMV; added at 2 hpi, MOI 3, 96 hpi, read-out: IC50 (HCMV titers)) | inhibition of replication of the mouse equivalent of CMV in culture (MCMV) [%] | EC50 (EBV) (EBV) | EC50 (KSHV) (KSHV) | EC50 against other viruses [1] | inhibition of Zika virus infection (Zika virus) | adverse effects ([2]; 250 μg intraperitoneally once daily for 14 straight days) | kidney function (creatinine and BUN levels) ([2]; treated mice, day 4 and day 30 p.i.) | signs of distress (mouse polyomavirus; challenge with mouse polyomavirus after treatment) | CD8 T cell response to the virus (mouse polyomavirus; day 8 or day 30 post infection) | levels of immune cells (spleen, kidney) (mouse polyomavirus; day 8 post infection)
C[C@H]1CCC/C=C/[C@@H]2C[C@H](O)C[C@H]2[C@H](O)/C=C/C(=O)O1 [Brefeldin A, reference compound] | very few cells in the monolayer remained |  |  |  |  |  |  |  |  |  |  |  | 
Cc1nc(-c2ccc(C3N(C)c4ccc([N+](=O)[O-])cc4C(=O)N3c3ccccc3)s2)cs1 (centres unmarked) [DABL-NM, 6-Nitro-1-methyl-2-(5-(2-methylthiazol-4-yl)thiophen-2-yl)-3-phenyl-2,3-dihydroquinazolin-4(1H)-one] |  | ~7.70 |  |  |  |  |  |  |  |  |  |  | 
Cc1nc(-c2ccc(C3N(C)c4ccc(F)cc4C(=O)N3c3ccccc3)s2)cs1 (centres unmarked) [Retro94F, 6-Fluoro-1-methyl-2-(5-(2-methylthiazol-4-yl)thiophen-2-yl)-3-phenyl-2,3-dihydroquinazolin-4(1H)-one] |  | ~7.70 | ~7.82 | 99 | low naonmolar range | low naonmolar range | high nanomolar to low micromolar range | approximately 90% | no apparent adverse effects | did not adversely affect kidney function | no signs of distress | did not alter | equivalent levels of immune cells as control treatment
